Measurements taken from US20160257749A1, “ANTI-TIM3 ANTIBODIES AND METHODS OF USE” (Hoffmann-La Roche, Inc., priority 2014, published 2016).

Legend:
[1] = test system: recTIM-3 CHO cells; assay: Cytotoxic activity, sandwich format with anti-mouse Fc Fab-PE24, CellTiter-Glo; assay type: cell-based; settings: Cricetulus griseus, 72 h, full length mouse Fcγ versions + mouse Fcγ specific Fab-PE 24 (10 μg/ml), 3 days at 37° C.
Excerpt: (§1) Rel. Inhibition [%]=(1−(Esample−Enegative control)/(Epositive control−Enegative control))*100

[2] = test system: Pfeiffer cells; assay: Cytotoxic activity, human IgG1 format with anti-human Fc Fab-PE24, CellTiter-Glo; assay type: cell-based; settings: full length human IgG1 format + human Fcγ specific Fab-PE 24 (10 μg/ml), 5 days at 37° C.
Excerpt: as §1

[3] = test system: RPMI-8226 cells; assay: as above; assay type: cell-based; settings: full length human IgG1 format + human Fcγ specific Fab-PE 24 (10 μg/ml), 5 days at 37° C.
Excerpt: as §1

[4] = test system: CMK; assay: Cytotoxic activity of Fab-PE24 constructs, CellTiter-Glo; assay type: cell-based, human; settings: 4 days at 37° C.
Method: (§2) Treatment ranges from 50 μg/ml to 8 μg/ml in triplicate. Cycloheximide was used as positive control.

[5] = test system: Karpas-299; assay: as above; assay type: cell-based, human; settings: 4 days at 37° C.
Method: as §2

[6] = test system: MOLM-13; assay: as above; assay type: cell-based, human; settings: 4 days at 37° C.
Method: as §2

[7] = test system: RPMI-8226; assay: as above; assay type: cell-based, human; settings: 4 days at 37° C.
Method: as §2

[8] = test system: TF-1; assay: as above; assay type: cell-based, human; settings: 4 days at 37° C.
Method: as §2

[9] = test system: primary CD34+ AML cells; assay: Cytotoxic activity of Fab-PE24 constructs on primary AML cells from relapsed/refractory patients; assay type: cell-based, human; settings: 3 days at 37° C.
Excerpt: CD34+ cells from peripheral blood of relapsed/refractory patients were obtained from AllCells, LLC, Alameda, Calif.
Cycloheximide was used as positive control.

[10] = test system: Pfeiffer cells; assay: Cytotoxic activity of sortase coupled Fab-PE24 constructs, CellTiter-Glo; assay type: cell-based, human
Method: as §2

[11] = test system: RPMI-8226 cells; assay: as above; assay type: cell-based, human
Method: as §2

[12] = test system: Pfeiffer cells; assay: Cytotoxic activity of Fab-PE24 construct vs total IgG-Amatoxin conjugate, CellTiter-Glo; assay type: cell-based, human
Method: as §2

[13] = target: RNA-polymerase II (Homo sapiens, UniProt P24928+P30876); settings: read-out: KD of the complex between amanitin and RNA-polymerase II; cited from earlier work

| Molecule | IC50 [1] [nM] | Pfeiffer cells Max. killing [2] | RPMI-8226 cells Max. killing [3] | CMK Max. killing [4] [%] | Karpas-299 Max. killing [5] [%] | MOLM-13 Max. killing [6] [%] | RPMI-8226 Max. killing [7] [%] | TF-1 Max. killing [8] [%] | D1; AML CD34+ PB0136 cells Max. killing [9] | D2; AML CD34+ PB0142 cells Max. killing [9] | D3; AML CD34+ PB0135 cells Max. killing [9] | D4; AML CD34+ PB0193 cells Max. killing [9] | Pfeiffer cells Max. killing [10] | RPMI-8226 cells Max. killing [11] | Pfeiffer cells Max. killing [12] | Kd [13] [nM] |
| --- | --- | --- | --- | --- | --- | --- | --- | --- | --- | --- | --- | --- | --- | --- | --- | --- |
| C[C@@H]1C[C@@H]([C@H](O)CC2CC(=O)NC(=O)C2)C(=O)[C@@H](C)C1 [Cycloheximide, reference compound] | 135 | 100 [%] | 100 [%] | 100 | 100 | 100 | 100 | 100 | 100 [%] | 100 [%] | 100 [%] | 100 [%] | 100 [%] | 100 [%] | 100 [%] | – |
| amanitin | – | – | – | – | – | – | – | – | – | – | – | – | – | – | – | 3 |
